Earlier results on three compounds are cited in patent US6767915B2, “Substituted piperidines as melanocortin receptor agonists” (Merck & Co., Inc., priority 2000, dated 2004).

One data set deals with erectile dysfunction. To be noted: for duration of effect / onset of action: after an oral dose; for share of men/patients with adequate response: oral.
The test system of data set [1] is psychogenic erectile dysfunction.
The conditions of data set [2]: in vivo, po.

With `Cc1ccc(N(CC2=NCCN2)c2cccc(O)c2)cc1` [phentolamine], in the data set with erectile dysfunction, the duration of effect is 2 h, the onset of action is 5 to 30 min and the “share of men/patients with adequate response” value was 35-40%.

With `CCCc1nn(C)c2c(=O)[nH]c(-c3cc(S(=O)(=O)N4CCN(C)CC4)ccc3OCC)nc12` [sildenafil], in the data set on erectile dysfunction, the duration of effect entry is recorded as “about 4 hours”, the onset of action was 30 to 60 min and the “share of men/patients with adequate response” value is recorded as “about 70%”.

“Ac-Nle-c[Asp-His-DPhe-Arg-Trp-Lys]-NH2 [MT-II]”: the response rate in data set [1] (injected intramuscularly or subcutaneously, males with psychogenic erectile dysfunction) is 75%. In data set [1] (subcutaneous injection), the duration of action entry was “approximately 2.5 hours” and the “time to onset of erection” value was 10 to 20 min. In data set [2], the “absorption into the systemic circulation” value was “not absorbed into the systemic circulation”.
